# “Also recorded” adds a separate entry of the source.
# Legend:
# [1] = tested on: EBV lytic cycle (expression of EBV Rta); assay: Inhibition of EBV lytic cycle: immunoblot of Rta expression in P3HR1 cells after lytic induction; type: cell-based, Epstein–Barr Virus; conditions: for inhibition of EBV lytic cycle, first screening (in words): 0.25 µM, sodium butyrate + TPA, 24 h; for concentration causing a marked reduction in the Rta levels: 24 h after lytic induction; for concentration causing a marked reduction in the Rta levels / IC50: immunoblot; for IC50: human gammaherpesvirus 4, P3HR-1, 24 h after lytic induction with SB and TPA; for selectivity ratio at 24 h: human, cytotoxic IC50 (P3HR1) / anti-EBV Rta IC50, read-out: Selectivity of the anti-EBV vs. cytotoxic effect (ratio of the corresponding IC50 values)
# Description: Compounds 2 and 6–28 were tested for their activity on the EBV lytic cycle. To assess this, the P3HR1 cells were treated with sodium butyrate and TPA for 24 h. As expected, lytic protein Rta was expressed after lytic induction. As a first screening, the cells were treated with protoapigenone (2), used as a positive control, or compounds 6–28 at the induction of lytic cycle for 24 h.
# (§1) EBV-positive BL cell line P3HR1 cells were cultured in RPMI 1640 medium. Culture media were supplemented with 10% fetal calf serum. P3HR1 cells were treated with 3 mM sodium butyrate and 30 nM 12-O-tetradecanoylphobol-13-actetae (TPA) to induce the EBV lytic cycle.
# P3HR1 cells were lysed in mRIPA buffer (50 mM Tris-HCl, pH 7.8, 150 mM NaCl, 5 mM EDTA, 0.5% Triton X-100, 0.5% NP-40). Approximately 5% of the lysate was loaded to a gel and then separated by electrophoresis in 10% SDS-PAGE. The proteins in the gel were electroblotted onto a polyvinylidene difluoride (PVDF) blotting membrane while using a Hoefer transfer system. Rta was detected while using mouse anti-Rta monoclonal antibody (Argene, Verniolle, France). α-Tubulin was detected using mouse anti-α-tubulin monoclonal antibody (Abcam, Cambridge, UK). Primary antibodies were detected using horseradish peroxidase-conjugated secondary antibodies (Cell Signaling Technology, Danvers, MA, USA) and then visualized using SuperSignal West Pico Chemiluminescent substrate (Thermo Fisher Scientific, Waltham, MA, USA).
# [2] = MTT cytotoxicity on the HIV host cells; type: cell-based; conditions: human, U373-CD4-CCR5 cells, MTT, 48 h, n=2; tested up to 100 µM (compound 9 up to 500 µM); read-out: Cytotoxic IC50 ± SEM
# Description: (§2) The U373-CD4-CCR5 cell line was obtained from the AIDS Research and Reagent Program, NIAID. Cells were cultured according to the protocol of the provider with 10% heat-inactivated fetal bovine serum (Lonza, Maastricht, The Netherlands) supplemented with 2 mM L-glutamine, 100 units/mL of penicillin, and 100 µg/mL streptomycin (Invitrogen, Merelbeke, Belgium). Pseudotyped viral particules bearing the ADA HIV Env were produced, as described previously.
# (§3) Antiviral activity was assessed while using a Pseudotype Virus Assay, allowing for one cycle of viral replication. The U373-CD4-CCR5 cells were infected by pseudotyped virus pNL4.3ΔenvLuc-ADA 8 using spinoculation at 1200 g during 2 h in the presence of compounds and cultured for two consecutive days in the presence of the compounds. After 48 h, luciferase activity expressed as Relative Light Units was measured (Luciferase System kit, Promega, The Netherlands). Drug cytotoxicity was evaluated while using MTT (3-(4,5-dimethylthiazol-2-yl)-2,5-diphenyltetrazolium bromide, Sigma, Belgium) 48 h after incubation with the compounds by measuring A540 and A690 using a POLARstar Omega Plate Reader (BMG Lab Technologies, Belgium) after 48 h of incubation with the compounds. The value of OD540–OD690 was calculated.
# [3] = MTT cytotoxicity assay on P3HR1 cells; type: cell-based; conditions: human, 24 h
# Description: as §1
# (§4) P3HR1 cells (5 × 10^4) were seeded in wells of a 96-well plate and then cultured for 24 h in 100 µL of RPMI 1640 medium containing protoapigenone or its analogs. Subsequently, 1% Triton X-100 was added as a […] control. Cytotoxicity was determined by Cell Proliferation Kit I (Roche, Basel, Switzerland). An aliquot of 10 µL of the MTT labeling reagent was added to each well and the plate was incubated for 4 h at 37°C. Afterwards, 100 µL solubilization solution was added to each well to dissolve insoluble formazan and was incubated overnight. Optical density was measured at 595 nm and 650 nm.
# P3HR1 cells = assay: MTT cytotoxicity assay on P3HR1 cells; type: cell-based
# Description: as §1, §4
# U373-CD4-CCR5 cells = assay: MTT cytotoxicity on the HIV host cells; type: cell-based; conditions: for IC50: U373-CD4-CCR5 cells, MTT, 48 h, n=2, tested up to 100 µM (compound 9 up to 500 µM), read-out: Cytotoxic IC50 ± SEM
# Description: as §2, §3
# HIV-1 = HIV-1 pseudotype virus assay (one cycle of viral replication, luciferase readout); type: cell-based
# Description: Compounds 2, 6–14, and 21–28 were tested against HIV-1 while using a pseudotype virus assay allowing only one cycle of viral replication and being more sensitive for compounds targeting the early steps of HIV replication, such as reverse transcription and integration. […] While this represents a rather weak activity, it might still be of interest, since this compound was not cytotoxic on the host cells at as high as 500 µM concentration.
# as §2, with “Pseudotyped viral particules bearing the ADA HIV Env were produced, as described previously.” left out
# as §3, with “The U373-CD4-CCR5 cells were infected by pseudotyped virus pNL4.3ΔenvLuc-ADA 8 using spinoculation at 1200 g during 2 h in the presence of compounds and cultured for two consecutive days in the presence of the compounds.” left out
# [4] = tested on: EBV lytic cycle (expression of EBV Rta); design: method as in PMID 21490247; conditions: 0.25 µM; cited from earlier work
structure (smiles),measurement,setting,value
"C#CCOC1(c2cc(=O)c3c(O)cc(O)cc3o2)C=CC(=O)C=C1 [Compound 8, protoapigenone 1′-O-propargyl ether]","inhibition of EBV lytic cycle, first screening (in words)",[1],can inhibit EBV lytic cycle
same,concentration causing a marked reduction in the Rta levels,[1],0.50 µM
same,IC50,[1],0.285 µM
same,selectivity ratio at 24 h,[1],17.3
same,IC50 at 48 h,[2],0.67 ± 0.03 µM
same,IC50 at 24 h,[3],4.93 µM
same,cytotoxic activity compared to protoapigenone (in words),P3HR1 cells,similarly active as protoapigenone
"O=C1CCC(O)(c2cc(=O)c3c(O)cc(O)cc3o2)CC1 [Compound 9, Tetrahydroprotoapigenone]",cytotoxicity on the host cells (in words),U373-CD4-CCR5 cells; at as high as 500 µM,not cytotoxic
same,IC50 at 48 h,[2],> 500 µM
same,inhibition at 100 µM,"HIV-1; Human immunodeficiency virus 1, 48 h, read-out: inhibition of viral infection",~50%
same,antiretroviral activity against HIV-1 (in words),"HIV-1; pseudotype virus assay, 100 µM where stated",inhibits HIV-1 infection; also recorded: weak antiretroviral activity
"CC(C)OC1(c2cc(=O)c3c(O)cc(O)cc3o2)C=CC(=O)C=C1 [Compound 6, protoapigenone 1′-O-isopropyl ether]","inhibition of EBV lytic cycle, first screening (in words)",[1],can inhibit EBV lytic cycle
same,concentration causing a marked reduction in the Rta levels,[1],0.50 µM
same,IC50,[1],0.467 µM
same,selectivity ratio at 24 h,[1],73
same,IC50 at 48 h,[2],2.09 ± 0.13 µM
same,IC50 at 24 h,[3],34.1 µM
same,cytotoxic activity compared to protoapigenone (in words),P3HR1 cells,much weaker; also recorded: an order of magnitude lower cytotoxic effect
C#CCOC1(c2cc(=O)c3c(O)cc(O)cc3o2)C=CC(=NO)CC1OC (stereo not shown) [Compound 26],IC50,U373-CD4-CCR5 cells,> 100 µM
CCCCOC1(c2cc(=O)c3c(O)cc(O)cc3o2)C=CC(=NO)CC1OC (stereo not shown) [Compound 22],IC50 at 48 h,[2],> 100 µM
CC(C)OC1(c2cc(=O)c3c(O)cc(O)cc3o2)CCC(=O)CC1 [Compound 13],IC50 at 48 h,[2],> 100 µM
C#CCOC1(c2cc(=O)c3c(O)cc(O)cc3o2)C=CC(=NO)CC1OC (stereo not shown) [Compound 23],IC50 at 48 h,[2],~89.5 µM
"O=C1C=CC(O)(c2cc(=O)c3c(O)cc(O)cc3o2)C=C1 [Compound 2, protoapigenone]",IC50,[1],0.127 µM
same,selectivity ratio at 24 h,[1],30.1
same,activity against EBV lytic cycle (in words),[4],strong activity
same,IC50 at 48 h,[2],0.22 ± 0.003 µM
same,IC50 at 24 h,[3],3.86 µM
O=c1cc(C2(O)CCC(=NO)CC2)oc2cc(O)cc(O)c12 (stereo not shown) [Compound 27],IC50 at 48 h,[2],> 100 µM
COC1CC(=NO)C=CC1(OC(C)C)c1cc(=O)c2c(O)cc(O)cc2o1 (stereo not shown) [Compound 24],IC50,U373-CD4-CCR5 cells,> 100 µM
CCCOC1(c2cc(=O)c3c(O)cc(O)cc3o2)CCC(=O)CC1 [Compound 12],IC50 at 48 h,[2],> 100 µM
CCOC1(c2cc(=O)c3c(O)cc(O)cc3o2)CCC(=O)CC1 [Compound 11],IC50 at 48 h,[2],> 100 µM
CCCCOC1(c2cc(=O)c3c(O)cc(O)cc3o2)C=CC(=NO)CC1OC (stereo not shown) [Compound 25],IC50,U373-CD4-CCR5 cells,53.88 ± 0.35 µM
CCCCOC1(c2cc(=O)c3c(O)cc(O)cc3o2)CCC(=NO)CC1 (stereo not shown) [Compound 28],IC50 at 48 h,[2],27 ± 8.4 µM
CCCCOC1(c2cc(=O)c3c(O)cc(O)cc3o2)C=CC(=O)C=C1 [Compound 7],"inhibition of EBV lytic cycle, first screening (in words)",[1],can inhibit EBV lytic cycle
same,concentration causing a marked reduction in the Rta levels,[1],0.25 µM
same,IC50,[1],0.208 µM
same,selectivity ratio at 24 h,[1],9.8
same,IC50 at 48 h,[2],0.25 ± 0.002 µM
same,IC50 at 24 h,[3],2.04 µM
same,cytotoxic activity compared to protoapigenone (in words),P3HR1 cells,similarly active as protoapigenone
COC1CC(=NO)C=CC1(OC(C)C)c1cc(=O)c2c(O)cc(O)cc2o1 (stereo not shown) [Compound 21],IC50 at 48 h,[2],> 100 µM
COC1(c2cc(=O)c3c(O)cc(O)cc3o2)CCC(=O)CC1 [Compound 10],IC50 at 48 h,[2],> 100 µM
CCCCOC1(c2cc(=O)c3c(O)cc(O)cc3o2)CCC(=O)CC1 [Compound 14],IC50 at 48 h,[2],~6.37 µM

# Reference: publication PMC6940897, “Less Cytotoxic Protoflavones as Antiviral Agents: Protoapigenone 1′-O-isopropyl ether Shows Improved Selectivity Against the Epstein–Barr Virus Lytic Cycle” (International Journal of Molecular Sciences, 2019)
